According to PubChem BioAssay AID248 (DTP/NCI, 2004):
Values joined by “and” are separate entries in the source; they are usually repeats but may differ in a detail not shown here. Equal entries are not always repeated. Toxic doses and inconclusive results are not listed. Cut-off read from the data, not from the text of the source: active = T/C of 150% or more; inactive = T/C below 125%.

System: L1210 leukemia ip in BDF1 mice, survival T/C
Assay: NCI In Vivo Anticancer Drug Screen. Data for tumor model L1210 Leukemia (intraperitoneal) in B6D2F1 (BDF1) mice
Conditions: endpoint: mean survival time, higher = longer survival
In short: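 Value reflects the ratio of survival in compound-treated mice to survival in vehicle-treated controls, with both groups carrying the same transplanted tumor.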

[1] = dose: 50.0 mg/kg/injection, schedule: Q04DX003 (ip), vehicle: saline with Tween-80
[2] = dose: 100.0 mg/kg/injection, schedule: Q04DX003 (ip), vehicle: saline with Tween-80
[3] = dose: 100.0 mg/kg/injection, schedule: Q01DX001 (ip), vehicle: saline
[4] = dose: 200.0 mg/kg/injection, schedule: Q01DX001 (ip), vehicle: saline
[5] = dose: 400.0 mg/kg/injection, schedule: Q01DX001 (ip), vehicle: saline
[6] = dose: 100.0 mg/kg/injection, schedule: Q01DX009 (ip), vehicle: Klucel (hydroxypropylcellulose) (HPC)
[7] = dose: 100.0 mg/kg/injection, schedule: Q04DX003 (ip), vehicle: Klucel (hydroxypropylcellulose) (HPC)
[8] = dose: 200.0 mg/kg/injection, schedule: Q01DX009 (ip), vehicle: Klucel (hydroxypropylcellulose) (HPC)
[9] = dose: 200.0 mg/kg/injection, schedule: Q04DX003 (ip), vehicle: Klucel (hydroxypropylcellulose) (HPC)
[10] = dose: 400.0 mg/kg/injection, schedule: Q04DX003 (ip), vehicle: Klucel (hydroxypropylcellulose) (HPC)
[11] = dose: 400.0 mg/kg/injection, schedule: Q01DX009 (ip), vehicle: Klucel (hydroxypropylcellulose) (HPC)
[12] = dose: 100.0 mg/kg/injection, schedule: Q01DX009 (ip), vehicle: saline
[13] = dose: 200.0 mg/kg/injection, schedule: Q01DX009 (ip), vehicle: saline
[14] = dose: 400.0 mg/kg/injection, schedule: Q01DX009 (ip), vehicle: saline
[15] = dose: 100.0 mg/kg/injection, schedule: Q04DX003 (ip), vehicle: saline

Measured: T/C

O=C(O)CCCCCNC(=O)OCc1ccccc1
inactive: dose: 100.0 mg/kg/injection, schedule: Q01DX009 (ip), vehicle: gum acacia 102 % of control | dose: 100.0 mg/kg/injection, schedule: Q04DX003 (ip), vehicle: gum acacia 91 % of control | dose: 200.0 mg/kg/injection, schedule: Q01DX009 (ip), vehicle: gum acacia 103 % of control | dose: 200.0 mg/kg/injection, schedule: Q04DX003 (ip), vehicle: gum acacia 93 % of control | dose: 400.0 mg/kg/injection, schedule: Q01DX009 (ip), vehicle: gum acacia 86 % of control | dose: 400.0 mg/kg/injection, schedule: Q04DX003 (ip), vehicle: gum acacia 91 % of control

Cc1c(C#N)c2nc(C(=O)c3ccc(Br)cc3)cc(-c3ccc(Br)cc3)n2c1C
inactive: [1] 98 % of control | [2] 111 % of control | dose: 200.0 mg/kg/injection, schedule: Q04DX003 (ip), vehicle: saline with Tween-80 103 % of control | dose: 400.0 mg/kg/injection, schedule: Q04DX003 (ip), vehicle: saline with Tween-80 106 % of control

O=C(Nc1ccc(S(=O)(=O)NC2CCCCC2)cc1)Oc1ccc([N+](=O)[O-])cc1
inactive: [3] 96 % of control | [4] 100 % of control | [5] 100 % of control

O=C1OC(=O)C2C3C=CC(C12)C1C3C1N1C(=O)CCC1=O (stereo unspecified)
inactive: dose: 50.0 mg/kg/injection, schedule: Q04DX003 (ip), vehicle: acetone 96 % of control | dose: 100.0 mg/kg/injection, schedule: Q04DX003 (ip), vehicle: acetone 88 % of control | dose: 200.0 mg/kg/injection, schedule: Q04DX003 (ip), vehicle: acetone 95 % of control

C=C(CCCCC)C(=O)/C=C/c1ccc(Cl)cc1
inactive: dose: 50.0 mg/kg/injection, schedule: Q01DX009 (ip), vehicle: Klucel (hydroxypropylcellulose) (HPC) 103 % of control | [6] 97 % of control | [7] 102 % of control | [8] 95 % of control | [9] 100 % of control | [10] 103 % of control

O=[N+]([O-])c1cc2c3ccccc3c(F)cc2c2ccccc12
inactive: [6] 98 % of control | [7] 96 % of control | [8] 98 % of control | [9] 91 % of control | [11] 98 % of control | [10] 101 % of control

C=CC[P+](c1ccccc1)(c1ccccc1)c1ccccc1
inactive: dose: 1.56 mg/kg/injection, schedule: Q01DX009 (ip), vehicle: Klucel (hydroxypropylcellulose) (HPC) 103 % of control | dose: 3.12 mg/kg/injection, schedule: Q01DX009 (ip), vehicle: Klucel (hydroxypropylcellulose) (HPC) 101 % of control | dose: 5.0 mg/kg/injection, schedule: Q01DX001 (ip), vehicle: saline 104 % of control | dose: 6.25 mg/kg/injection, schedule: Q01DX009 (ip), vehicle: Klucel (hydroxypropylcellulose) (HPC) 94 % of control | dose: 9.5 mg/kg/injection, schedule: Q01DX001 (ip), vehicle: other 107 % of control | dose: 10.0 mg/kg/injection, schedule: Q01DX001 (ip), vehicle: saline 98 % of control | dose: 12.5 mg/kg/injection, schedule: Q01DX009 (ip), vehicle: Klucel (hydroxypropylcellulose) (HPC) 103 % of control | dose: 19.0 mg/kg/injection, schedule: Q01DX001 (ip), vehicle: other 100 % of control | dose: 20.0 mg/kg/injection, schedule: Q01DX001 (ip), vehicle: saline 102 % of control | dose: 38.0 mg/kg/injection, schedule: Q01DX001 (ip), vehicle: other 102 % of control

NC(CSS(=O)(=O)O)=NCc1cccs1
inactive: dose: 12.5 mg/kg/injection, schedule: Q01DX009 (ip), vehicle: saline with Tween-80 103 % of control | dose: 25.0 mg/kg/injection, schedule: Q01DX009 (ip), vehicle: saline with Tween-80 96 % of control

CC(=O)N1C=Cn2c(cnc2C)C1O (stereo unspecified)
inactive: dose: 100.0 mg/kg/injection, schedule: Q01DX009 (ip), vehicle: water 104 % of control | dose: 100.0 mg/kg/injection, schedule: Q04DX003 (ip), vehicle: water 109 % of control | dose: 200.0 mg/kg/injection, schedule: Q01DX009 (ip), vehicle: water 94 % of control | dose: 200.0 mg/kg/injection, schedule: Q04DX003 (ip), vehicle: water 102 % of control | dose: 400.0 mg/kg/injection, schedule: Q04DX003 (ip), vehicle: water 98 % of control

CCC(C)OC(=O)C(C)OC(=O)OCCOCCOC(=O)OC(C)C(=O)OC(C)CC (stereo unspecified)
inactive: [3] 96 % of control | [4] 100 % of control | [5] 96 % of control

Cl/C(=C/C=C(c1ccccc1)c1ccccc1)c1ccccc1
inactive: dose: 100.0 mg/kg/injection, schedule: Q04DX002 (ip), vehicle: saline with Tween-80 88 % of control | dose: 200.0 mg/kg/injection, schedule: Q04DX002 (ip), vehicle: saline with Tween-80 88 % of control

CCCCCCCCCCCCCCCOc1c(Cl)c(Cl)c(Cl)c(Cl)c1Cl
inactive: [7] 95 % of control | [9] 90 % of control | [10] 95 % of control

CCc1cccc(CC)c1NC(=O)Nc1ccccc1F
inactive: dose: 100.0 mg/kg/injection, schedule: Q01DX009 (ip), vehicle: other 91 % of control | dose: 200.0 mg/kg/injection, schedule: Q01DX009 (ip), vehicle: other 102 % of control | dose: 400.0 mg/kg/injection, schedule: Q01DX009 (ip), vehicle: other 105 % of control

O=C(/C=C/C(=O)Nc1cccc(C2=NCCN2)c1)Nc1cccc(C2=NCCN2)c1
inactive: dose: 3.75 mg/kg/injection, schedule: Q01DX Z (ip), vehicle: carboxymethylcellulose (CMC) 94 % of control | dose: 7.5 mg/kg/injection, schedule: Q01DX Z (ip), vehicle: carboxymethylcellulose (CMC) 94 % of control | dose: 15.0 mg/kg/injection, schedule: Q01DX Z (ip), vehicle: carboxymethylcellulose (CMC) 94 % of control

CN(C)CC1CC2(CC(CN(C)C)C1=O)OCCO2 (stereo unspecified)
inactive: dose: 9.38 mg/kg/injection, schedule: Q01DX001 (ip), vehicle: other 98 % of control | dose: 18.75 mg/kg/injection, schedule: Q01DX001 (ip), vehicle: other 97 % of control | dose: 37.5 mg/kg/injection, schedule: Q01DX001 (ip), vehicle: other 104 % of control

CN(Cc1cccc(Cl)c1)C(=O)NC(C)(C)C
inactive: dose: 100.0 mg/kg/injection, schedule: Q04DX002 (ip), vehicle: Klucel (hydroxypropylcellulose) (HPC) 100 % of control | dose: 200.0 mg/kg/injection, schedule: Q04DX002 (ip), vehicle: Klucel (hydroxypropylcellulose) (HPC) 96 % of control | dose: 400.0 mg/kg/injection, schedule: Q04DX002 (ip), vehicle: Klucel (hydroxypropylcellulose) (HPC) 100 % of control

CCOC(=O)CCN(C)C
inactive: [12] 104 % of control | [13] 101 % of control | [14] 98 % of control

CCCC[N+](CC)(CC)CCOC(=O)C1C2CC3OC(=O)C1C3C2 (stereo unspecified)
inactive: [15] 101 % of control

S=P(c1ccccc1)(c1ccccc1)c1ccccc1
inactive: dose: 50.0 mg/kg/injection, schedule: Q04DX002 (ip), vehicle: saline 96 % of control | dose: 100.0 mg/kg/injection, schedule: Q04DX002 (ip), vehicle: saline 93 % of control | dose: 200.0 mg/kg/injection, schedule: Q04DX002 (ip), vehicle: saline 96 % of control

COc1ccc(C)cc1NC(=O)c1ccc(F)cc1
inactive: [6] 94 % of control | [8] 97 % of control | [11] 100 % of control

CC(=O)Nc1ccn(CC(=O)c2cccs2)c(=O)n1
inactive: [12] 96 % of control | [15] 95 % of control | [13] 94 % of control | dose: 200.0 mg/kg/injection, schedule: Q04DX003 (ip), vehicle: saline 101 % of control | [14] 89 % of control | dose: 400.0 mg/kg/injection, schedule: Q04DX003 (ip), vehicle: saline 110 % of control

COc1ccc(CC2=NCCN2)cc1
inactive: dose: 25.0 mg/kg/injection, schedule: Q04DX003 (ip), vehicle: saline with Tween-80 91 % of control | [1] 93 % of control | [2] 101 % of control and 89 % of control

CCCCn1ccnc1
inactive: dose: 12.5 mg/kg/injection, schedule: Q04DX003 (ip), vehicle: saline 105 % of control | dose: 25.0 mg/kg/injection, schedule: Q04DX003 (ip), vehicle: saline 103 % of control
